Columns and labels:
human red blood cells = assay: Hemolytic test; format: cell-based; settings: at 100 μg/ml; human red blood cells 2% (V/V), 37° C., 1 hour, O.D. 490 nm
Description: Fresh human red blood cells were washed by 0.9% physiological saline for three times, then were dissolved into 2% (V/V) physiological saline, and 50 μL red blood cells suspension and 50 μL of the compound (10, 50 and 100 μg/ml of antibiotic Fmoc-Ala-OPfp) and Triton X-100 was added into the 96-well tray, wherein the final concentration of red blood cells was 2% (V/V). The sample was slightly shaking in the incubator under 37° C. for 1 hour and centrifuged with 2000 g for 30 minutes. 50 μL sample suspension was dropped into a new 96-well tray and the O.D. 490 nm absorbance was measured. The physiological saline and Triton X-100 was negative control group and positive control group, respectively.

Staphylococcus aureus = assay: Antibiotics activity test (bacteria concentration OD630 over time); format: cell-based; settings: 1 μg/ml Fmoc-Ala-OPfp in culture medium, 8 hours after bacterial inoculation, 37° C.; compared with ampicillin and vancomycin
Description: The bacteria were cultured for antibiotics activity test. (FIG. 3) The cultured cells were added with specific concentration of Fmoc-Ala-OPfp, Ampicillin and Vancomycin as experimental group, and the cultured cells were not added with any drugs as control group, and the same amount of Staphylococcus aureus colonies were added then cultured in an incubator under 37° C. The different time of bacteria concentrations (OD630) were tested to investigate the antibiotic inhibitory effect of Fmoc-Ala-OPfp, Ampicillin and Vancomycin.
Only a small amount (1 μg/ml) of Fmoc-Ala-OPfp was added in the culture medium.

[1] = test system: Mammalian cell line L292 and MEF cell lines; assay: MTT assay cytotoxicity (survival analysis); format: cell-based, human; settings: 100 μg/mL, 24 hours, 570 nm absorbance
Description: Mammalian cell line L292 and MEF cell lines were cultured in Dulbecco's modified Eagle culture medium, wherein the culture medium was added with 100 μg/mL streptomycin, 100 U/mL penicillin and 10% (v/v) fetal bovine serum, and then the cell lines were cultured the in 5% CO2 containing humidified incubator under 37° C.
MTT assay was used for investigating the cytotoxicity of compound on mammalian cells. The cells were cultured at 96-well tray with 100 μL culture medium for 24 hours after sterilization, then the cells were cultured in the diluted culture medium for 24 hours. 3-(4,5-dimethylthiazol-2yl)-2,5-diphenyltetrazolium bromide (MTT) was added into each well of 96-well tray and incubated for 4 hours. The cell suspension was removed and 100 μL dimethyl sulfoxide was added for dissolving all the precipitate. Enzyme immunoassay instrument was used for measure the 570 nm absorbance.

SMILES: C[C@H](NC(=O)OCC1c2ccccc2-c2ccccc21)C(=O)Oc1c(F)c(F)c(F)c(F)c1F [Fmoc-Ala-OPfp, N-(9-fluorenylmethoxycarbonyl)-L-alanine pentafluorophenyl]
- hemolytic activity (human red blood cells): low hemolytic activity
- antibiotic effect (inhibition of bacteria growth, OD630) (Staphylococcus aureus): equivalent to 5.3 μg/ml of ampicillin and 5.3 μg/ml vancomycin
- cell toxicity on MTT assay [1]: 10-20%

From patent US10076508B2, “Pharmaceutical compositions for inhibiting antibiotic-resistant microorganisms and uses thereof” (Peptide Cham Biotech Co., Ltd., priority 2015, dated 2018)
